From ChEMBL document CHEMBL1938273, “Design, synthesis and in vitro evaluation of novel bivalent S-adenosylmethionine analogues” (Bioorg Med Chem Lett, 2012)

Legend:
[1] = target: T1, Met repressor (Escherichia coli) (UniProt C3SIU2); assay: Binding affinity to Escherichia coli metJ assessed as protein dimer-DNA complex formation using F-metC operator DNA by fluorescence anisotropy relative to 4-((((2R,3S,4R,5R)-5-(6-amino-9H-purin-9-yl)-3,4-dihydroxy-tetrahydrofuran-2-yl)methyl)(methyl)amino)-N-propylbutanamide
T1 sequence (whole entry): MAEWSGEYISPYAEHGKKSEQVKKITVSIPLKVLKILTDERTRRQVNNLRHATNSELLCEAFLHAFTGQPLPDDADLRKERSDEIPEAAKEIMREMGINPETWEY

[2] = target: T1, Met repressor (Escherichia coli); assay: Binding affinity to Escherichia coli metJ assessed as protein dimer-DNA complex formation using F-metC operator DNA by fluorescence anisotropy relative to 5'-[{(3''S)-4''-Benzylamino-3''-amino-4''-oxobutyl}dimethylamino]-5'-deoxyadenosine iodide ditrifluoroacetic acid salt
Met repressor = target: T2, Met repressor (Escherichia coli, UniProt C3SIU2); assay: Binding affinity to Escherichia coli metJ in presence of operator DNA complex by filter binding study
T2 sequence (C3SIU2 whole entry): T1 sequence (whole entry)

With CN(CCCC(=O)NCCOC1CCCCCc2c1nnn2CCNC(=O)CCCN(C)C[C@H]1O[C@@H](n2cnc3c(N)ncnc32)[C@H](O)[C@@H]1O)C[C@H]1O[C@@H](n2cnc3c(N)ncnc32)[C@H](O)[C@@H]1O (mixture of isomers) the fold change (FC) [1] was 9.1.
C[N+](C)(CC[C@H](N)C(=O)NCc1ccc(CNC(=O)[C@@H](N)CC[N+](C)(C)C[C@H]2O[C@@H](n3cnc4c(N)ncnc43)[C@H](O)[C@@H]2O)cc1)C[C@H]1O[C@@H](n2cnc3c(N)ncnc32)[C@H](O)[C@@H]1O (mixture of isomers) showed a fold change (FC) [2] of 2.4.
C[S+](CC[C@H](N)C(=O)[O-])C[C@H]1O[C@@H](n2cnc3c(N)ncnc32)[C@H](O)[C@@H]1O (stereo partly specified) [ADEMETIONINE] was tested, and the Kd (Met repressor) was 4 nM.
Compound CN(CCCC(=O)NCCCCn1nnc2c1CCCCCC2OCCNC(=O)CCCN(C)C[C@H]1O[C@@H](n2cnc3c(N)ncnc32)[C@H](O)[C@@H]1O)C[C@H]1O[C@@H](n2cnc3c(N)ncnc32)[C@H](O)[C@@H]1O (stereo partly specified) has a fold change (FC) [1] of 13.
Work on CN(CCCC(=O)NCCCCCCNC(=O)CCCN(C)C[C@H]1O[C@@H](n2cnc3c(N)ncnc32)[C@H](O)[C@@H]1O)C[C@H]1O[C@@H](n2cnc3c(N)ncnc32)[C@H](O)[C@@H]1O yielded a fold change (FC) [1] of 21.
Work on C[N+](C)(CC[C@H](N)C(=O)NCc1cccc(CNC(=O)[C@@H](N)CC[N+](C)(C)C[C@H]2O[C@@H](n3cnc4c(N)ncnc43)[C@H](O)[C@@H]2O)c1)C[C@H]1O[C@@H](n2cnc3c(N)ncnc32)[C@H](O)[C@@H]1O (mixture of isomers) yielded a fold change (FC) [2] of 3.6.
